Source: US20070004767A1, “Methods for treating neurofibromatosis 1” (priority 2005, published 2007)

Legend:
[1] = system: ribosomal S6 protein phosphorylation in Nf1−/− astrocytes; test: S6 phosphorylation (phospho-S6 Ser240/244 Western blot) in Nf1−/− astrocytes; assay type: cell-based, mouse
Experimental: (§1) Western blot analysis was performed as described previously in, for example, Dasgupta B et al., The Neurofibromatosis 1 Gene Product Neurofibromin Regulates Pituitary Adenylate Cyclase-Activating Polypeptide-Mediated Signaling in Astrocytes, J. NEUROSCI. 23:8949-8954 (2003). The following antibodies were used: anti-NF1GRP, nucleolin, and cyclin D1 (Santa Cruz Biotechnology, Santa Cruz, Calif.), phospho-S6 (Serine-240/244; Cell Signaling Technology, Beverley, Mass.), α-tubulin and fibrillarin (Sigma, St. Louis, Mo.), anti-T7 (Novagen, Madison, Wis.), anti-KT3 (Babco, Richmond, Calif.), NPM (Zymed, San Francisco, Calif.), and L7 (Novus Biologicals, Littleton, Colo.).
(§2) One of the downstream targets of activated RAS is P13-Kinase. See Rodriguez-Viciana P, et al., Phosphatidylinositol-3-OH Kinase as a Direct Target of Ras, NATURE 370:527-532 (1994). In this regard, loss of neurofibromin expression is associated with activation of the PI3K-AKT signaling pathway in human NF1-associated pilocytic astrocytoma and in Nf1−/− mouse myeloid cells. See Lau N, et al., Loss of Neurofibromin is Associated with Activation of Ras/MAPK and PI3K/AKT Signalling in a Neurofibromatosis 1 Astrocytoma, J NEUROPATHOL. EXP. NEUROL. 59:759-767 (2000); and Donovan S, et al., Hyperactivation of Protein Kinase B and Erk Have Discrete Effects on Survival, Proliferation, and Cytokine Expression in Nf1-Deficient Myeloid Cells, CANCER CELL 2:507-514 (2002). Several studies have shown that activation of the PI3K-AKT leads to activation of the mammalian target of rapamycin (mTOR), which leads to phosphorylation of S6 kinase and activation of ribosomal S6. See Chung J, et al., PDGF- and Insulin-Dependent pp70S6k Activation Mediated by Phosphatidylinositol-3-OH Kinase, NATURE 370:71-75 (1994); and Gingras A C, et al., Regulation of Translation Initiation by FRAP/mTOR, GENES DEV. […] To determine whether S6 hyperactivation in Nf1−/− astrocytes is downstream of PI3K and mTOR, S6 phosphorylation in both Nf1+/+ and Nf1−/− astrocytes in presence of a PI3K inhibitor (LY294002) and an mTOR inhibitor (rapamycin) was measured. […]

[2] = system: wild-type astrocytes; test: Astrocyte proliferation by 3[H]-thymidine incorporation, wild-type astrocytes
Experimental: (§3) Murine neocortical astroglial cultures, containing >95% GFAP positive cells (astrocytes), were generated from postnatal day 2 Nf1^flox/flox and (LSL)-K-RAS^G12D; GFAPCre transgenic pups as previously described. […] Astrocyte proliferation assays were performed by ^3[H]-thymidine incorporation.
(§4) To determine whether the growth advantage of Nf1-deficient astrocytes reflected increased mTOR signaling, Nf1−/− astrocyte proliferation after rapamycin treatment was measured.

[3] = system: Nf1−/− astrocytes; test: Astrocyte proliferation by 3[H]-thymidine incorporation, Nf1−/− astrocytes
Experimental: as §3, §4

[4] = system: astrocytes; conditions: mouse, 1 μM
Experimental: as §4

[5] = system: ribosomal S6 protein phosphorylation in wild-type (Nf1+/+) astrocytes; test: S6 phosphorylation (phospho-S6 Ser240/244 Western blot) in wild-type astrocytes; assay type: cell-based, mouse; conditions: for S6 phosphorylation: wild-type astrocytes
Experimental: as §1, §2

[6] = target: 12 kDa FK506 binding protein (FKBP12) (Homo sapiens, UniProt P62942); conditions: cited from earlier work
Sequence of 12 kDa FK506 binding protein (FKBP12) (P62942 whole entry, species assumed, the tested form may be a part): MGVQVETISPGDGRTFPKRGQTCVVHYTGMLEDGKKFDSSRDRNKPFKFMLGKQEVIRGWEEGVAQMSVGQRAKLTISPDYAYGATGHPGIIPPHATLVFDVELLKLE

[7] = target: FKBP-rapamycin binding domain (FRB) of mammalian target of rapamycin (mTOR) (Homo sapiens, UniProt P42345+P62942); conditions: cited from earlier work
Sequence of FKBP-rapamycin binding domain (FRB) of mammalian target of rapamycin (mTOR) (P42345 2015-2114, species assumed): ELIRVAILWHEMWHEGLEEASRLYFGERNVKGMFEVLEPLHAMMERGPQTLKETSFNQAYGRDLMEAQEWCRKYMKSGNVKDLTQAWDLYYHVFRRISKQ
Sequence of FKBP-rapamycin binding domain (FRB) of mammalian target of rapamycin (mTOR) (P62942 2-108, species assumed): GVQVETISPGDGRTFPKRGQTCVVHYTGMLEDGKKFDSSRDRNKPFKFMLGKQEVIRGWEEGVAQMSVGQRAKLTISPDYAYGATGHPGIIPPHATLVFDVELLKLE

[8] = control astrocytes, FIG. 6 legend

CO[C@H]1C[C@@H]2CC[C@@H](C)[C@@](O)(O2)C(=O)C(=O)N2CCCC[C@H]2C(=O)O[C@H]([C@H](C)C[C@@H]2CC[C@@H](O)[C@H](OC)C2)CC(=O)[C@H](C)/C=C(\C)[C@@H](O)[C@@H](OC)C(=O)[C@H](C)C[C@H](C)/C=C/C=C/C=C/1C [rapamycin, Rapamycin]
S6 phosphorylation ([1]; 1 μM, FIG. 6 inset): significantly inhibited
S6 phosphorylation ([1]; 5 μM, FIG. 2C): completely inhibited
inhibition of ribosomal S6 protein phosphorylation, dose dependence ([1]; FIG. 6 legend): dose-dependent inhibition
effect on cell proliferation (growth) in control astrocytes [2, 8]: little or no effect
reduction of basal proliferation ([2]; wild-type astrocytes, 1 μM): 16±4%
reduction of proliferation ([3]; 1 μM): 55±9.5%
inhibition of cell proliferation (growth), dose dependence ([3]; FIG. 6 legend): dose-dependent inhibition
cell survival (Trypan blue exclusion) [4]: greater than 98%
effect on ribosomal S6 protein phosphorylation in control astrocytes [5, 8]: little or no effect
S6 phosphorylation ([5]; 1 μM, FIG. 6 inset): no effect
S6 phosphorylation ([5]; 5 μM, FIG. 2C): completely inhibited
binding affinity to FKBP12 [6]: high affinity
binding affinity to FRB domain (E2015 to Q2114) of mTOR [7]: high affinity
